Assay results from patent publication US8586629B2, “Composition for the treatment of oxidative stress” (Probiox SA, priority 2008, dated 2013).
Where two headings read alike, the source gives them in different places. Blank lines part the entries; values can stand above or below the compound they belong to.

Experiments:
[1] = zinc supplemented group; cited from earlier work
[2] = hypobaric hypoxia studies and COPD study; cited from earlier work
[3] = zinc supplementation; cited from earlier work
[4] = test system: LDL; details: zinc supplementation; cited from earlier work
[5] = supplementation; cited from earlier work
[6] = test system: LDL; details: in vitro; cited from earlier work
[7] = 6 week supplementation; cited from earlier work
[8] = test system: oxidized LDL; assay: Clinical study: plasma oxidized LDL in women under Yasmin; assay type: in vivo; details: for number of responders (minimum of 35% decrease of oxLDL): T4 versus T0; for effect on LDL oxidation: general conclusion; for oxLDL at T4 compared to T0: plasma, within arm
Description: (§1) Subjects: 60 women were selected on the basis of the below-mentioned selection criteria and divided into 4 groups. Keeping a possible dropout in mind (in total 45 women completed the study), these groups were designed such, that by the end of the study; groups SOCO_A and SOCO_D would contain 15 subjects; and groups SOCO_B and SOCO_C would contain 10 subjects.
(§2) Inclusion Criteria: • Age: between 18 and 35 years • Informed consent collected • Patients under oral contraception with Yasmin for at least three months
(§3) Whereby one menstrual cycle is flanked by 2 vertical lines and, whereby: • SOCO_A) represents the intake of a combination of a Zinc supplement and a Quercetin supplement • SOCO_B) represents the intake of a Zinc supplement • SOCO_C) represents the intake of a Quercetin supplement • SOCO_D) represents the intake of a placebo supplement
(§4) And whereby: • V1 represents a first visit between day −42 and day −14 • V2 represents a second visit between day −7 and −3 • V3 represents a third visit between day 23 and 27 • V4 represents a fourth visit between day 51 and 55 • V5 represents a fifth visit between day 113 and 117
(§5) SOCO_A: Quercetin DC 500 mg • Zinc picolinate 20% (elementary 22.5 mg) 113 mg • Magnesium stearate 3 mg • 1 capsule per day during 112 days
(§6) SOCO_B: Zinc picolinate 20% (elementary 22.5 mg) 113 mg • Dicalcium phosphate 125 mg • Cellulose microcrystals 375 mg • Magnesium stearate 3 mg • 1 capsule per day during 112 days
(§7) SOCO_C: Quercetin DC 500 mg • Dicalcium phosphate 85 mg • Cellulose microcrystals 28 mg • Magnesium stearate 3 mg • 1 capsule per day during 112 days
(§8) SOCO_D: Dicalcium phosphate 460 mg • Cellulose microcrystals 153 mg • Magnesium stearate 3 mg • 1 capsule per day during 112 days
(§9) A blood sample (2-3 tubes of +/−5 ml) was collected during each visit. A maximum of 60 ml blood was required per subject for the whole study. Blood samples for haematological and biochemical tests were collected during V1 and V5, and blood samples for oxidative stress assessment were collected during V2, V3, V4 and V5.
(§10) Plasma concentration of lipid peroxides, copper and zinc were determined in blood samples taken at V2, V3, V4 and V5. Plasma concentration of oxidized LDL was determined in blood samples taken at V2 and V5. The expression of 200 genes involved in oxidative stress were determined via quantitative measurements of mRNA expression by microarray, in blood samples taken at V2 and V5.

[9] = Clinical study: plasma lipid peroxides, copper and zinc in women under Yasmin; assay type: in vivo
Description: as §1, §2, §3, §4, §5, §6, §7, §8, §9, §10

Compound: [Zn] [zinc]
incidence of infection [1]: significantly lower
lipid peroxides [1]: significant diminution
oxidative stress markers [2]: no effects
oxidative stress markers [3]: did not alter
Cu-induced LDL oxidation [4]: no effects

Compound: O=c1c(O)c(-c2ccc(O)c(O)c2)oc2cc(O)cc(O)c12 [quercetin]
protection from oxidative stress induced damage [5]: does not exert protection
inhibition of oxidative damage to LDL [6]: most effective inhibitor

Compound: C[C@@H]1O[C@@H](OC[C@H]2O[C@@H](Oc3c(-c4ccc(O)c(O)c4)oc4cc(O)cc(O)c4c3=O)[C@H](O)[C@@H](O)[C@@H]2O)[C@H](O)[C@H](O)[C@H]1O [rutin]
levels of three plasma flavonoids [7]: significantly elevated

Compound: O=c1c(O)c(-c2ccc(O)c(O)c2)oc2cc(O)cc(O)c12 [quercetin alone, Quercetin]
number of responders (minimum of 35% decrease of oxLDL) [8]: 0%
effect on LDL oxidation [8]: weak effect
oxLDL at T4 compared to T0 [8]: weak significant decrease

mean relative change in Zn between T4 and T0 (mean zinc increase) ([9]; compared to placebo): significant
mean relative change in Zn between T4 and T0 (mean zinc increase) ([9]; compared to quercetin alone): significant
Compound: Zinc picolinate [Zinc alone]
mean relative change in Cu/Zn between T4 and T0 (mean Cu/Zn decrease) ([9]; compared to placebo): significant
mean relative change in Cu/Zn between T4 and T0 (mean Cu/Zn decrease) ([9]; compared to quercetin alone): significant
number of responders (minimum of 35% decrease of oxLDL) [8]: 0%
effect on LDL oxidation [8]: No effect
oxLDL at T4 compared to T0 [8]: no significant changes
